Test results published in article PMC3929086, “Targeted manipulation of the sortilin–progranulin axis rescues progranulin haploinsufficiency” (Human Molecular Genetics, 2013).

Key:
GRN expression = conditions: HDAC inhibitor; cited from earlier work
From the text: While new strategies designed to upregulate PGRN levels have emerged, challenges remain in terms of limiting off-target effects. […] However, because HDAC and V-ATPase inhibitors can potentially affect a wide-range of genes at transcriptional and po ...

[1] = system: PGRN endocytosis in WT-hESCs; assay: DyL-rPGRN endocytosis in wild-type hESCs; format: cell-based; conditions: Homo sapiens; WT-hESC, BVFP, same conditions as COS-1^SORT1 (5 μM)
From the text: (§1) To determine whether BVFP, when bound to PGRN, disrupts full-length PGRN and SORT1 binding, we devised a SORT1-dependent rPGRN precipitation assay utilizing the Meso-Scale Discovery (MSD) system (Supplementary Material, Fig. S4A and B). […] To include a higher-affinity PGRN588–593 motif binder as a positive control, an antibody targeting the motif, PGRN-CT antibody, was made for validating the approach (Fig. 5F). […] First, we found SORT1 was abundantly expressed in the wild-type hESCs (Fig. 5H). Similar to the results from COS-1^SORT1 cells, BVFP and PGRN-CT antibody inhibited endocytosis of DyL-rPGRN by 22 and 39%, respectively, under the same experimental conditions in wild-type hESCs (Fig. 5I left).
(§2) COS-1 cells seeded on a 96-well black plate 1 day before were transfected with pCMV-SORT1 vector. After 24 h, cells were treated with fluorescence-tagged rPGRN (DyL-rPGRN) pre-labeled by DyLight™ 594 antibody labeling kit (Thermo Scientific). The DyL-rPGRN was diluted in OptiMEM to tested concentrations and incubated with the cells for 1 h for endocytosis. The cells were then washed with cold PBS and then fixed by 4% paraformaldehyde. After washing twice, each well was filled with PBS prior scanning. The total PGRN fluorescent signal from the cells was obtained by a plate reader with 593/618 nm (Ex/Em) settings. […]

SORT1–PGRN interaction = assay: MSD-based SORT1–PGRN interaction assay; format: biochemical, human; conditions: BVFP 20 and 200 μM pre-incubated 30 min with 200 nM N-rP
Method: M17 cells were transfected with pCMV-SORT1-Flag for 48 h. Then, the cell lysate was harvested by the same method used in the co-immunoprecipitation assay. Expression of SORT1-Flag protein was confirmed by western blot. MSD plate was first coated with the Flag M2 antibody (Sigma). Following an overnight incubation at 4°C, the plate was blocked for 2 h and then washed prior to addition of 5 µg/well of lysate protein containing SORT1-Flag protein. After overnight incubation at 4°C, it was then washed and added with 200 nM of either N-6His- or C-6His-tagged rPGRN pre-incubated with either vehicle, 20 µM or 200 µM of BVFP, for 30 min at room temperature. Then plate was then incubated for 2 h, washed and incubated with a mixture of PCDGF antibody and a SULFO-TAG-labeled anti-rabbit IgG antibody for 2 h. After final wash, the plate was read by the MSD Sector Imager 2400.

PGRN588–593 peptide = PGRN588–593 peptide (Homo sapiens, UniProt P28799); assay: Epic biochemical binding assay (resonant waveguide grating); conditions: PGRN588–593 peptide immobilized; PBS with 5% DMSO; 30 min binding; n = 4
From the text: page 6: SUPPLEMENTARY METHODS AND RESULTS Epic(R) biochemical assay and compound library screen Essentially, the Epic® is a spectrophotometric reader that uses a resonant waveguide grating detection mechanism to detect biochemical interactions (Fig.5A). In brief, the waveguide grating biosensor in each well of the 384-well assay plate intercepts broadband light and measures changes in resonant wavelengths (in picometers, pm) when a ligand binds to the target protein immobilized on the biosensor. To identify chemical binders of the PGRN588-593 peptide, we immobilized the peptide onto the biosensor surface of Epic® assay plates using an amine- coupling method, and screened 4,800 compounds. For immobilization, 150 µg/ml peptide diluted in a 20 mM sodium acetate buffer, pH 5, was added to the assay plate to incubate for overnight at 4 °C. The plate was then washed in binding buffer (PBS with 5% DMSO) for three times and equilibrated in the binding buffer for 6 h in the Epic® carousal. During the equilibration period, compounds from the library stock plate (CNS-set compound library from Chembridge®) were diluted to 50 µM in binding buffer. Each compound was tested in quadruplicate. After the equilibration, a Baseline Reading was acquired by the Epic® spectrophotometer. […] After mixing and a 30 min ‘binding’ period, a Final Reading was acquired. […]

PGRN(588–593) peptide = assay: UV-absorption titration of BVFP with PGRN(588–593) peptide; format: binding, human; conditions: 20 μM BVFP, PGRN(588–593) peptide titrated
Method: Stock solutions of compound BVFP (20 mM) and PGRN(588–593) peptide (12.96 mM) were prepared in DMSO and water, respectively. For the UV absorption experiment, both components were diluted to give final concentrations of 20 μM BVFP and 324 μM peptide. The interaction between BVFP and the PGRN(588–593) peptide was monitored by scanning over the UV absorbance range of 200–800 nm on a Cary 3 Bio UV–visible spectrophotometer (Varian), as a small amount of KKGRN peptide (0.1 equivalence/1 μl per addition) was titrated into the 20 μM BVFP sample. In addition to baseline correction with DMSO, a control titration experiment using water in place of the PGRN(588–593) peptide was performed under identical conditions in order to correct for potential spectral changes owing to sample dilution.

[2] = system: SORT1-mediated PGRN endocytosis; assay: Quantitative DyL-rPGRN endocytosis assay in COS-1^SORT1 cells; format: cell-based, human; conditions: COS-1^SORT1, 5 μM binder pre-incubated 1 h with rPGRN, 1 h endocytosis
Method: COS-1 cells seeded on a 96-well black plate 1 day before were transfected with pCMV-SORT1 vector. After 24 h, cells were treated with fluorescence-tagged rPGRN (DyL-rPGRN) pre-labeled by DyLight™ 594 antibody labeling kit (Thermo Scientific). The DyL-rPGRN was diluted in OptiMEM to tested concentrations and incubated with the cells for 1 h for endocytosis. The cells were then washed with cold PBS and then fixed by 4% paraformaldehyde. After washing twice, each well was filled with PBS prior scanning. The total PGRN fluorescent signal from the cells was obtained by a plate reader with 593/618 nm (Ex/Em) settings. The endocytosis signal was normalized by the total nuclei signal obtained by staining with a Hoechst 33342 dye. Baseline endocytosis signal was defined as a signal from medium-only-treated cells, whereas the 100% endocytosis level was set as the signal obtained from cells treated with 50 nM DyL-rPGRN. For testing SORT1 ligands, DyL-rPGRN and the peptide were added simultaneously to the cells. For testing of PGRN binders, the binder was pre-incubated with DyL-rPGRN for 1 h before adding to the cells. For qualitative analysis, images from each well were captured by BD Pathway 855 system using a 20× magnification setting.

[3] = system: PGRN endocytosis in SORT1^KO-hESCs; assay: DyL-rPGRN endocytosis in SORT1^KO-hESCs; format: cell-based, human; conditions: SORT1^KO-hESC
From the text: as §1, §2

SORT1 = assay: PGRN endocytosis in M17 cells overexpressing SORT1; format: cell-based; conditions: M17 cells overexpressing SORT1, after EL reaction
Method: M17 cells seeded in 12-well culture plates (western blot) or on glass coverslips in 24-well culture plate (immunofluorescence) were transfected with pEGFP-N1 (Clontech) or pCMV-SORT1 (OriGene) vectors. Next day, the cells were changed into serum-free medium 1 h before addition of rPGRN (500 ng/ml) and treated for 60 min. The cells were then put on ice and washed with cold PBS. For western blot, cells were lysed in cold M-Per protein extraction buffer followed by standard procedures as mentioned. For immunofluorescence analyses, cells were fixed in 4% paraformaldehyde solution followed by PBS washes. The cells were then incubated in blocking buffer (PBS, 5% goat serum, 0.1% saponin) for 1 h at room temperature followed by incubation in primary antibody overnight at 4°C. The cells were incubated with secondary antibodies (1:1000) for 1 h at room temperature. The coverslips were then mounted onto slides and waited overnight before analysis. Image analysis was performed by Zeiss LSM 510 META confocal microscope using 60× magnification setting.

elastase = assay: Elastase digestion of rPGRN in cell culture media; format: in vitro ADME; conditions: in vitro reaction with EL in culture media; compared with WT rPGRN, western blot
Method: PGRN, SORT1, GFP, GAPDH and β-actin proteins were analyzed using 10% Tris–glycine polyacrylamide gel by SDS–PAGE. After electrophoresis, proteins on gel were transblotted to PVDF membranes followed by standard immunoblotting protocols.

Which GRN expression (GRN expression) does the source give for `O=C(CCCCCCC(=O)Nc1ccccc1)NO` [suberoylanilide hydroxamic acid] here?
Its GRN expression is “enhancer of GRN expression”.

Which results are given for `O=c1nc(C=Cc2cccc(Br)c2)cc(C(F)(F)F)[nH]1` [BVFP, 4-[2-(3-bromophenyl)vinyl]-6-(trifluoromethyl)-2(1H)-pyrimidinone]?
inhibition at 5 µM [1]: 22%; inhibition of rPGRN binding to immobilized SORT1 (SORT1–PGRN interaction): dose-dependent inhibition of rPGRN binding to immobilized SORT1; Kd (PGRN588–593 peptide): 20 µM; UV-absorption change upon peptide titration (PGRN(588–593) peptide): shift in the ultraviolet(UV)-absorption spectra of BVFP and distinct changes of absorption intensities; isosbestic point (PGRN(588–593) peptide): 313 nm; inhibition of DyL-rPGRN endocytosis [2]: 23%; effect on DyL-rPGRN endocytosis [3]: no effect on DyL-rPGRN endocytosis

B1: A588G-rPGRN: rPGRN with Ala-to-Gly mutation at the A588 elastase cleavage site (protein)
chain: TRCPDGQFCPVACCLDPGGASYSCCRPLLDKWPTTLSRHLGGPCQVDAHCSAGHSCIFTVSGTSSCCPFPEAVACGDGHHCCPRGFHCSADGRSCFQRSGNNSVGAIQCPDSQFECPDFSTCCVMVDGSWGCCPMPQASCCEDRVHCCPHGAFCDLVHTRCITPTGTHPLAKKLPAQRTNRAVALSSSVMCPDARSRCPDGSTCCELPSGKYGCCPMPNATCCSDHLHCCPQDTVCDLIQSKCLSKENATTDLLTKLPAHTVGDVKCDMEVSCPDGYTCCRLQSGAWGCCPFTQAVCCEDHIHCCPAGFTCDTQKGTCEQGPHQVPWMEKAPAHLSLPDPQALKRDVPCDNVSSCPSSDTCCQLTSGEWGCCPIPEAVCCSDHQHCCPQGYTCVAEGQCQRGSEIVAGLEKMPARRASLSHPRDIGCDQHTSCPVGQTCCPSLGGSWACCQLPHAVCCEDRQHCCPAGYTCNVKARSCEKEVVSAQPATFLARSPHVGVKDVECGEGHFCHDNQTCCRDNRQGWACCPYRQGVCCADRRHCCPAGFRCAARGTKCLRREAPRWDAPLRDPGLRQLL
modifications: left off: His6, end not stated, state not stated
notes: rPGRN with Ala-to-Gly mutation at the A588 elastase cleavage site
Which “uptake after elastase treatment” value (SORT1) does the source give for B1 here?
The value was “endocytosed by cells to a similar extent compared with no EL control”.

What about the “resistance to elastase (residual full-length protein in medium)” value (elastase) of the same molecule?
The value was “more resistant to EL activity”.
